Assay results reported in patent publication US8513271B2, “Pyrimidine compounds as delta opioid receptor modulators” (Janssen Pharmaceutica, NV, priority 2009, dated 2013).
Like-named read-outs stand apart in the source and are kept apart here.

Biological target: T1, delta opioid receptor (Mus musculus, UniProt P32300)
T1 construct: NG108-15 cell membranes were purchased from Applied Cell Sciences (Rockville, Md.); host or cells: NG108-15 cell membranes
Test: [35S]GTPγS binding assay in NG108-15 cell membranes (delta opioid functional assay), 200 nM screen
Format: biochemical
Conditions: NG108-15 cell membranes; for GTPγS δ-RelEfficacy @200 nM: 200 nM test compound, relative to calculated max of SNC80 dose response curve; for GTPγS δ-RelEfficacy @200 nM / EC50: averages if tested more than once; for GTPγS δ-opioid receptor Rel Efficacy: relative efficacy from dose response

[1] = GTPγS δ-opioid receptor EC50 (μM)
[2] = read-out: GTPγS δ-opioid receptor EC50

T1 sequence (P32300 whole entry): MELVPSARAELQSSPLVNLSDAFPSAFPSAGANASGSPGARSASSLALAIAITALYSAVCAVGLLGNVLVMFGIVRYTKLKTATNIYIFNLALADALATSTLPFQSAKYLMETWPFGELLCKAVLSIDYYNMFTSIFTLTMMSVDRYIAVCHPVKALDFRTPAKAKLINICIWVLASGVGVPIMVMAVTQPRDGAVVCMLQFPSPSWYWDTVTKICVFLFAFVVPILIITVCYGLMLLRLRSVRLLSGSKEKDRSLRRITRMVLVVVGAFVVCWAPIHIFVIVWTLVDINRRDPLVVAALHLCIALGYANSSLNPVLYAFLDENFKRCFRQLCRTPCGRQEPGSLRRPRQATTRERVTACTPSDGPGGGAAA

SMILES	GTPγS δ-RelEfficacy @200 nM	EC50 [1]	GTPγS δ-opioid receptor Rel Efficacy	EC50 [2]
O=C(c1cccc(Oc2nc(-c3cncc(F)c3)ncc2NC[C@@H]2CCCN2)c1)N1CCOCC1 [Cpd 173]	0.249			
COc1ccc(Oc2nc(-c3cncc(C#N)c3)ncc2N2CC[C@@H](N)C2)cc1 [Cpd 326]	0.744	0.032 µM	1.104	
Cc1ccc(Oc2nc(-c3cccnc3)ncc2NC[C@@H]2CCCN2)cc1F [Cpd 187]	0.497		1.104	0.16 µM
CC(=O)Oc1cccc(Oc2nc(-c3cncc(C)c3)ncc2NC[C@@H]2CCCN2)c1 [Cpd 251]	0.955	0.015 µM	1.145	
COc1ccc(Oc2nc(-c3cccnc3)ncc2NC2CNC2)cc1 [Cpd 226]	0.320			
COc1ccc(Oc2nc(-c3cncc(OC)c3)ncc2NC[C@@H]2C[C@@H](O)CN2)cc1 [Cpd 273, 5-(S)-{[4-(4-Methoxy-phenoxy)-2-(5-methoxy-pyridin-3-yl)-pyrimidin-5-ylamino]-methyl}-pyrrolidin-3-(R)-ol]		0.026 µM	1.001	
CC(=O)Oc1cccc(Oc2nc(-c3cncc(C#N)c3)ncc2NC[C@@H]2CCCN2)c1 [Cpd 228]	1.039	0.006 µM	1.082	
COc1ccc(Oc2nc(-c3cncc(C#N)c3)ncc2N2CCNCC2)cc1 [Cpd 325]	0.866	0.011 µM	1.042	
CSc1cncc(-c2ncc(NC[C@@H]3CCCN3)c(Oc3ccccc3Cl)n2)c1 [Cpd 233]	0.549			
COc1ccc(Oc2nc(-c3cccnc3)ncc2N[C@H]2CC[C@@H](N)CC2)cc1 [Cpd 305]	0.780	0.09 µM	1.081	
CSc1cncc(-c2ncc(NC[C@@H]3CCCN3)c(Oc3cccc(OC(C)=O)c3)n2)c1 [Cpd 248]	0.754	0.047 µM	1.084	
COc1ccc(Oc2nc(-c3cccnc3)ncc2NC2CCCC(N)C2)cc1 (single isomer, unassigned) [Cpd 323]		0.06 µM	0.988	
COc1ccc(Oc2nc(-c3cccnc3)ncc2NC[C@@H]2CCCCN2)cc1 [Cpd 225]	0.260		0.718	0.483 µM
COc1ccc(Oc2nc(-c3cncc(C#N)c3)ncc2N2CCNC(=O)C2)cc1 [Cpd 335]	0.050			
CCc1ccc(Oc2nc(-c3cncc(C#N)c3)ncc2NC[C@@H]2CCCN2)cc1 [Cpd 179]	0.601		1.182	0.119 µM
COc1ccc(Oc2nc(-c3cccnc3)ncc2N[C@@H]2CCC[C@H](N)C2)cc1 [Cpd 322]		0.196 µM	0.960	
COc1ccc(Oc2nc(-c3cncc(C#N)c3)ncc2NCc2cncn2C)cc1 [Cpd 286]	0.1			
COc1ccc(Oc2nc(-c3cnc(-c4cnc(Cl)c(C)c4)c(C)c3)ncc2NC[C@@H]2CCCN2)cc1 [Cpd 264]			1.036	0.12 µM
COc1ccc(Oc2nc(-c3cncc(SC)c3)ncc2N2CC[C@@H](N)C2)cc1 [Cpd 348]			0.689	0.101 µM

SMILES	GTPγS δ-RelEfficacy @200 nM	EC50 [1]	GTPγS δ-opioid receptor Rel Efficacy	EC50 [2]
COc1ccc(Oc2nc(-c3cncc(C#N)c3)ncc2N2CCC[C@@H]2CN)cc1 [Cpd 332]	0.393			
c1cncc(Cc2ccc(Oc3nc(-c4cccnc4)ncc3NC[C@@H]3CCCN3)cc2)c1 [Cpd 209, [2-Pyridin-3-yl-4-(4-pyridin-3-ylmethyl-phenoxy)-pyrimidin-5-yl]-pyrrolidin-2-(S)-ylmethyl-amine]	0.002			
Cc1cccc(Oc2nc(-c3cncc(C#N)c3)ncc2NC[C@@H]2CCCN2)c1 [Cpd 200]	0.289			
COc1ccc(Oc2nc(-c3cncc(SC)c3)ncc2NC2CCCC(N)C2)cc1 (single isomer, unassigned) [Cpd 319]		0.112 µM	0.871	
COc1ccc(Oc2nc(-c3cncc(C)c3)ncc2N[C@H]2CCCNC2)cc1 [Cpd 259]		0.0749 µM	1.030	
COc1ccc(Oc2nc(-c3cncc(C#N)c3)ncc2NC2CCNCC2)cc1 [Cpd 208]	0.398			
COc1ccc(Oc2nc(-c3cncc(Cl)c3)ncc2NC[C@@H]2C[C@@H](F)CN2)cc1 [Cpd 194]	0.665	0.022 µM	1.034	
Nc1ccc(Oc2nc(-c3cncc(F)c3)ncc2NC[C@@H]2CCCN2)cc1 [Cpd 198, [4-(4-Amino-phenoxy)-2-(5-fluoro-pyridin-3-yl)-pyrimidin-5-yl]-pyrrolidin-2-(S)-ylmethyl-amine]	0.513		1.050	0.118 µM
COc1ccc(Oc2nc(-c3cncc(C)c3)ncc2N[C@H]2CCNC2)cc1 [Cpd 257]		0.095 µM	0.830	
COc1ccc(Oc2nc(-c3cncnc3)ncc2N(C[C@@H]2CCCN2)C(C)=O)cc1 [Cpd 181, N-[4-(4-Methoxy-phenoxy)-[2,5′]bipyrimidinyl-5-yl]-N-pyrrolidin-2-(S)-ylmethyl-acetamide]	0.139			
COc1ccc(Oc2nc(-c3cncc(C#N)c3)ncc2N2CCC[C@H](N)C2)cc1 [Cpd 329]	0.475		1.006	0.138 µM
N#Cc1cncc(-c2ncc(NC[C@@H]3CCCN3)c(Oc3ccccc3Cl)n2)c1 [Cpd 230]	0.847			
COc1ccc(Oc2nc(-c3cccnc3)ncc2NC[C@H]2CCCCN2)cc1 [Cpd 267]			0.920	0.121 µM
Cc1ccc(Oc2nc(-c3cncc(C#N)c3)ncc2NC[C@@H]2CCCN2)cc1F [Cpd 183]	0.723	0.091 µM	1.091	
COc1ccc(Oc2nc(-c3cccnc3)ncc2NC[C@@H]2C[C@H](O)CN2)cc1 [Cpd 272]				> 1 µM
COc1ccc(Oc2nc(-c3cncc(SC)c3)ncc2N[C@H]2CCC[C@@H](N)C2)cc1 [Cpd 316]		0.00338 µM	0.977	
Fc1cncc(-c2ncc(NC[C@@H]3CCCN3)c(Oc3ccc(C(F)(F)F)cc3)n2)c1 [Cpd 221]	0.324			
CNCCNc1cnc(-c2cccnc2)nc1Oc1ccc(OC)cc1 [Cpd 297]			0.820	0.424 µM
Cc1cccc(Oc2nc(-c3cncc(Cl)c3)ncc2NC[C@@H]2CCCN2)c1 [Cpd 201]	0.148			

SMILES	GTPγS δ-RelEfficacy @200 nM	EC50 [1]	GTPγS δ-opioid receptor Rel Efficacy	EC50 [2]
Cc1cncc(-c2ncc(NC[C@@H]3CCCN3)c(Oc3ccc(OCF)cc3)n2)c1 [Cpd 260]			0.937	0.3 µM
COc1ccc(Oc2nc(-c3cncc(C)c3)ncc2N2CCCNCC2)cc1 [Cpd 358]			0.978	0.0242 µM
COc1cncc(-c2ncc(NC[C@@H]3CCCN3)c(Oc3cccc(O)c3)n2)c1 [Cpd 249]	1.000	0.011 µM	0.940	
COc1ccc(Oc2nc(-c3cncc(C#N)c3)ncc2N2CCC[C@@H]2CN)cc1 [Cpd 334]	0.423			
Cc1ccc(Oc2nc(-c3cccnc3)ncc2NC[C@@H]2CCCN2)c(F)c1F [Cpd 192]	0.135			
COc1ccc(Oc2nc(-c3cncc(C#N)c3)ncc2N2CC3CC(C2)N3)cc1 [Cpd 338]	0.723		0.956	0.197 µM
COc1ccc(Oc2nc(-c3cncc(C)c3)ncc2NCCN)cc1 [Cpd 296]			0.938	0.429 µM
COc1ccc(Oc2nc(-c3cc(C)cnc3C)ncc2NC[C@@H]2CCCN2)cc1 [Cpd 263]		0.027 µM	0.869	
CCN(CC)C(=O)c1cccc(Oc2nc(-c3cncc(F)c3)ncc2NC[C@@H]2CCCN2)c1 [Cpd 170]	0.176			
COc1ccc(Oc2nc(-c3cccnc3)ncc2N[C@@H]2CCNC2)cc1 [Cpd 224]	0.460		1.104	0.214 µM
N#Cc1cncc(-c2ncc(NC[C@@H]3CCCN3)c(Oc3ccc(C(F)(F)F)cc3)n2)c1 [Cpd 220]	0.457		0.890	0.454 µM
COc1ccc(Oc2nc(-c3cncc(C#N)c3)ncc2N2CCNC[C@H]2C)cc1 [Cpd 344]	0.808	0.047 µM	1.089	
CC[C@H]1CNCCN1c1cnc(-c2cncc(OC)c2)nc1Oc1ccc(OC)cc1 [Cpd 360]		0.013 µM	1.015	
O=C(Nc1ccc(Oc2nc(-c3cncc(F)c3)ncc2NC[C@@H]2CCCN2)cc1)OCc1ccccc1 [Cpd 197]	0.411		1.289	0.145 µM
Cc1ccc(Oc2nc(-c3cncc(Cl)c3)ncc2NC[C@@H]2CCCN2)cc1F [Cpd 186]	0.466		1.113	0.331 µM
O=CNc1ccc(Oc2nc(-c3cncc(F)c3)ncc2NC[C@@H]2CCCN2)cc1 [Cpd 223]	0.802		0.986	0.152 µM
COc1ccc(Oc2nc(-c3cccnc3)ncc2NC[C@@H]2C[C@@H](O)CN2)cc1 [Cpd 270, 5-(S)-{[4-(4-Methoxy-phenoxy)-2-(pyridin-3-yl)-pyrimidin-5-ylamino]-methyl}-pyrrolidin-3-(R)-ol]			0.820	0.197 µM
COc1ccc(Oc2nc(-c3cccnc3)ncc2N2CC[C@@H](N)C2)cc1 [Cpd 339]	0.641			
